The results in this text go back to patent publication US12459951B2, “Compounds that interact with RAS superfamily proteins for treatment of cancers, inflammatory diseases, rasopathies, and fibrotic disease” (SHY Therapeutics, LLC, priority 2022, dated 2025).

Assay [1] relates to Smad2/Smad3 phosphorylation. Nature of the assay: Phospho-Smad2/3 Inhibition Assay (western blot), Panc-1. It is filed as cell-based, human. The conditions noted are these: at 10 μM, Panc-1 pancreatic cancer cell line; starred symbols = activation. How it is done: Protocol for Phospho-Smad2/3 Inhibition Assay
This assay is referred to as the “Phospho-Smad2/3 Inhibition Assay” throughout this application.
Cell lines: Human tumor-derived pancreatic cancer cell line Panc-1 (expressing KRas G12D mutant) and mouse muscle myoblast C2C12 were purchased from American Type Culture Collection and grown in complete DMEM-High Glucose, supplemented with penicillin (100 U/mL), streptomycin (100 μg/mL), and 10% heat-inactivated FBS at 37° C. in a humidified incubator with 5% CO2.
Method: Cells were plated at 350000 cells/well density in a 12-well plate, allowed 3 hours to adhere to the plate, then starved in the appropriate medium in the presence of 0.5% FBS overnight. The small molecules to be tested were added to the cells in the final concentration of 10 μM in the presence of 0.3% DMSO for 3 hours incubation at 37° C. For IC50 value determination, serial dilutions of compounds were added to cells under the same conditions. Next, Panc-1 cells were stimulated with 10 ng/ml TGF-b1 for 1 hour, and C2C12 cells were stimulated with 10 ng/ml TGF-b1 for 20 minutes (recombinant human TGF-b1, R&D Systems). After stimulation cells were lysed with lysis buffer containing 1% Triton X-100, EDTA, and Halt™ Protease & Phosphatase Inhibitor Cocktail (Thermo Scientific). Protein concentration was assessed by BCA protein assay (Thermo Scientific). Phosphorylation level of Smad2/Smad3 was determined by western blot.
Western blot protocol: Equal amounts of protein (15-50 μg) were separated by SDS-PAGE and transferred to nitrocellulose membranes (Invitrogen by Thermo Fisher Scientific). The membrane was stained with Ponceau S Stain (Boston BioProducts) to verify uniform protein loading. Membranes were blocked with 10% milk and phosphorylation levels of Smad2/Smad3 were assessed by incubating overnight at 4° C. with the following antibodies: Phospho-Smad2 (Ser465/467) and Phosph-Smad3 (Ser423/425), both from Cell Signaling Technology. Then the membranes were incubated with HRP-conjugated secondary antibody (Jackson Immunoresearch, West Grove, PA). Bands were incubated in Amersham ECL Prime Western Blotting Detection Reagent (GE Healthcare) and visualized using the ChemiDoc MP imaging system (Bio-Rad).
For orientation: A western blot detects proteins with antibodies after separation by electrophoresis.

A further assay concerns TNF-alpha. Nature of the assay: TNF-alpha Quantification Assay (ELISA), LPS-stimulated RAW 264.7. It is filed as cell-based. The conditions noted are these: Mus musculus, RAW264.7; at 10 μM; read-out: TNFα: % inh. (ELISA stands for enzyme-linked immunosorbent assay.)
The test system of assay [2] is MiaPaca-2 (expressing KRAS G12C mutant). In words: Proliferation Assay (Cell Viability Assay). It is filed as cell-based. The settings on record: Homo sapiens, MIA PaCa-2. How it is done: Protocol for Proliferation Assay
This assay is referred to as the “Proliferation Assay” or “Cell Viability Assay” throughout this application.
Cell lines: Human tumor-derived cell lines were purchased from American Type Culture Collection. Human tumor-derived pancreatic cancer cell line MiaPaca-2 (expressing KRAS G12C mutant) and Panc-1 (expressing KRas G12D mutant), and Human non-small cell lung cancer (NSCLC) cell line A549 (expressing KRas G12S mutant) were grown in complete DMEM-High Glucose medium. Human colon cancer cell line SW-620 (expressing KRas G12V mutant) was grown in RPMI 1640 medium. All cell lines were supplemented with penicillin (100 U/mL), streptomycin (100 μg/mL), and 10% heat-inactivated FBS at 37° C. in a humidified incubator with 5% CO2.
Method: Cells were plated at 2000 to 5000 cells/well density in 96-wells plate and cultured overnight. Small molecules to be tested were added to the cells in the final concentration of 10 μM in the presence of 0.3% DMSO and 10% FBS and incubated for 2-4 days at 37° C. in a humidified incubator with 5% CO2. For IC50 value determination, serial dilutions of compounds were added to cells under the same conditions.
Assay: At the end of the incubation period, cell viability was determined using the CellTiter 96® Aqueous One Solution Cell Proliferation Assay according to manufacturer specifications (Promega, Madison, WI). The percentage of small molecules inhibition of cellular proliferation was calculated from raw data.
Cell lines: these Human tumor-derived cell lines were purchased from American Type Culture Collection. Human tumor-derived pancreatic cancer cell line MiaPaca-2 (expressing KRAS G12C mutant) and Panc-1 (expressing KRas G12D mutant), and Human non-small cell lung cancer (NSCLC) cell line A549 (expressing KRas G12S mutant), and Human melanoma cell line A375 (wild type Kras) were grown in complete DMEM-High Glucose medium. Human tumor-derived pancreatic cancer cell lines SU86.86 (expressing KRas G12D mutant), BxPC3 (expressing wild type K-Ras), and Human non-small cell lung cancer (NSCLC) cell lines NCI-H441 (expressing KRas G12S mutant), NCI-H1975 (expressing wild type KRas), NCI-H358 (expressing KRas G12C mutant), NCI-H1299 (expressing NRas Q61H mutant), and Human colon cancer cell line SW-620 (expressing KRas G12V mutant), Human triple negative breast cancer cell line HCC-1806 (expressing wild type KRas), and Human tumor-derived multiple myeloma cell line MM.1R (expressing wild type KRAS), were grown in RPMI 1640 medium. Human tumor-derived breast cancer cell line BT-549 (expressing wild type KRAS) was grown in RPMI 1640 medium in the presence of 11.8U insulin. Human tumor-derived pancreatic cancer cell line HPAF-II (expressing KRas G12D mutant), Human triple negative breast cancer cell line BT-20 (expressing wild type KRas), and Human colon cancer cell line LS123 (expressing KRas G12S mutant), were grown in EMEM medium. Human tumor-derived pancreatic cancer cell line CF-PAC1 (expressing KRas G12V mutant) was frown in IMDM medium, and Human colon cancer cell line HT29 (expressing wild type KRas) was grown in McCoy's 5A medium. The colon cancer cell line GP2d (expressing KRas G12D mutant) was purchased from MilliporeSigma and grown in DMEM-High Glucose medium. All cell lines were supplemented with penicillin (100 U/mL), streptomycin (100 μg/mL), and 10% heat-inactivated FBS at 37° C. in a humidified incubator with 5% CO2.
Method: Cells were plated at 2000 to 5000 cells/well density in 96-wells plate and cultured overnight. Small molecules that were tested were added to the cells in the final concentration of 10 μM in the presence of 0.3% DMSO and 10% FBS, and incubated for 2-4 days at 37° C. in a humidified incubator with 5% CO2. For IC50 value determination, serial dilutions of compounds were added to cells under the same conditions.

Setting [3] is: read-out: Proliferation in MiaPaca-2: IC50.

SMILES strings stand for the structures. Where two headings read alike, the source gives them in different places.

`COc1cncnc1Nc1nc(-c2nccn2C)nn2cc(-c3ccn(C)n3)c(C)c12` [Compound 107, N-(5-Methoxypyrimidin-4-yl)-5-methyl-2-(1-methyl-1H-imidazol-2-yl)-6-(1-methyl-1H-pyrazol-3-yl)pyrrolo[2,1-f][1,2,4]triazin-4-amine]: the “% inh of Smad2/3 phosphorylation in Panc-1” value (from here on “% inh”) in assay [1] was “A (A = 1-25% inhibition)”. Also, the inhibition at 10 µM in the assay with TNF-alpha was 1 to 24%. For the same compound, the IC50 in assay [2] (setting [3]) was below 150 nM.
Take `Cc1c(-c2ccn(C3CC3)n2)cn2nc(-c3nccn3C)nc(Nc3cc(OCCCN(C)C)ccn3)c12` [Compound 148, 6-(1-Cyclopropyl-1H-pyrazol-3-yl)-N-(4-(3-(dimethylamino)propoxy)pyridin-2-yl)-5-methyl-2-(1-methyl-1H-imidazol-2-yl)pyrrolo[2,1-f][1,2,4]triazin-4-amine]: the “% inh” value in assay [1] is “A (A = 1-25% inhibition)”. In the assay with TNF-alpha, the inhibition at 10 µM lay within 1 to 24%. Also, the IC50 in assay [2] (setting [3]) was above 1000 nM.
In the same order, the values of `Cc1c(-c2ccn(C)n2)cn2nc(-c3nccn3C)nc(Nc3ncccn3)c12.Cl` [Compound 115, 5-Methyl-2-(1-methyl-1H-imidazol-2-yl)-6-(1-methyl-1H-pyrazol-3-yl)-N-(pyrimidin-2-yl)pyrrolo[2,1-f][1,2,4]triazin-4-amine hydrochloride salt] are “A (A = 1-25% inhibition)”, 0% and below 150 nM.
As to `COc1ccnc(Nc2nc(-c3nccn3C)nn3cc(-c4ccn(C)n4)c(C)c23)n1.Cl` [Compound 114, N-(4-Methoxypyrimidin-2-yl)-5-methyl-2-(1-methyl-1H-imidazol-2-yl)-6-(1-methyl-1H-pyrazol-3-yl)pyrrolo[2,1-f][1,2,4]triazin-4-amine hydrochloride salt], the “% inh” value in assay [1] was “D* (D* = 76-100% activation)”. In the assay on TNF-alpha, the inhibition at 10 µM fell in the range of 50 to 74%. The IC50 in assay [2] (setting [3]) is below 150 nM.
On the same counts, the results for `CO[C@H]1C[C@H](Nc2nc(-c3nccn3C)nn3cc(-c4cccnc4)c(-c4ccccn4)c23)C1` [Compound 168, N-((1r,3r)-3-Methoxycyclobutyl)-2-(1-methyl-1H-imidazol-2-yl)-5-(pyridin-2-yl)-6-(pyridin-3-yl)pyrrolo[2,1-f][1,2,4]triazin-4-amine] are “A* (A* = 1-25% activation)”, 25 to 49% and above 1000 nM.
Turning to `Cc1c(-c2ccn(C)n2)cn2nc(-c3nccn3C)nc(Nc3ccccn3)c12` [Compound 118, 5-Methyl-2-(1-methyl-1H-imidazol-2-yl)-6-(1-methyl-1H-pyrazol-3-yl)-N-(pyridin-2-yl)pyrrolo[2,1-f][1,2,4]triazin-4-amine], the “% inh” value in assay [1] was “A* (A* = 1-25% activation)”. Besides, the inhibition at 10 µM with TNF-alpha lay in the range of 1 to 24%. In assay [2] (setting [3]), the IC50 is below 150 nM.
In the case of `Cc1c(-c2ccn(C(C)C)n2)cn2nc(-c3nccn3C)nc(Nc3ncc[nH]3)c12` [Compound 125, N-(1H-Imidazol-2-yl)-6-(1-isopropyl-1H-pyrazol-3-yl)-5-methyl-2-(1-methyl-1H-imidazol-2-yl)pyrrolo[2,1-f][1,2,4]triazin-4-amine], the “% inh” value in assay [1] was “B (B = 26-45% inhibition)”. Also, in the assay with TNF-alpha, the inhibition at 10 µM lay within 1 to 24%. Besides, the IC50 in assay [2] (setting [3]) is 150 to 500 nM.
Consider `Cc1c(-c2ccn(C)n2)cn2nc(-c3nccn3C)nc(Nc3cn(C(C)C)nn3)c12` [Compound 109, N-(1-Isopropyl-1H-1,2,3-triazol-4-yl)-5-methyl-2-(1-methyl-1H-imidazol-2-yl)-6-(1-methyl-1H-pyrazol-3-yl)pyrrolo[2,1-f][1,2,4]triazin-4-amine], for which, in assay [1], the “% inh” value is “D* (D* = 76-100% activation)”. Further, the inhibition at 10 µM in the assay on TNF-alpha is 0%. Also, the IC50 in assay [2] (setting [3]) is 510 to 1000 nM.
In the same order, the values of `COc1cc(-c2cn3nc(-c4nccn4C)nc(N[C@@H]4CC[C@@H](OC)C4)c3c2C)ccn1` (racemic) [Compound 163, rac N-((1R,3R)-3-Methoxycyclopentyl)-6-(2-methoxypyridin-4-yl)-5-methyl-2-(1-methyl-1H-imidazol-2-yl)pyrrolo[2,1-f][1,2,4]triazin-4-amine] are “B (B = 26-45% inhibition)”, 1 to 24% and above 1000 nM.
`Cc1c(-c2ccn(C3CC3)n2)cn2nc(-c3nccn3C)nc(O)c12` [Compound 134, 6-(1-Cyclopropyl-1H-pyrazol-3-yl)-5-methyl-2-(1-methyl-1H-imidazol-2-yl)pyrrolo[2,1-f][1,2,4]triazin-4-ol]: in assay [1], the “% inh” value was “B (B = 26-45% inhibition)”. Further, the inhibition at 10 µM with TNF-alpha was in the range of 1 to 24%. Moreover, the IC50 in assay [2] (setting [3]) was above 1000 nM.
As for `COc1ccnc(Nc2nc(-c3nccn3C)nn3cc(-c4ccn(C(F)F)n4)c(C)c23)n1` [Compound 95, 6-(1-(Difluoromethyl)-1H-pyrazol-3-yl)-N-(4-methoxypyrimidin-2-yl)-5-methyl-2-(1-methyl-1H-imidazol-2-yl)pyrrolo[2,1-f][1,2,4]triazin-4-amine], the “% inh” value in assay [1] is reported as “C* (C* = 46-75% activation)”. The inhibition at 10 µM in the assay with TNF-alpha lay within 1 to 24%. Besides, the IC50 in assay [2] (setting [3]) was below 150 nM.
As to `COc1cc(Nc2nc(-c3nccn3C)nn3cc(-c4ccn(C(C)C)n4)c(C)c23)ncn1` [Compound 6, 6-(1-Isopropyl-1H-pyrazol-3-yl)-N-(6-methoxypyrimidin-4-yl)-5-methyl-2-(1-methyl-1H-imidazol-2-yl)pyrrolo[2,1-f][1,2,4]triazin-4-amine], in assay [1], the “% inh” value was 0 (0 = 0% inhibition). Moreover, the inhibition at 10 µM in the assay with TNF-alpha is 25 to 49%. Moreover, the IC50 was below 150 nM in assay [2] (MiaPaca2, pancreatic, KRas G12C, read-out: Proliferation assay IC50); 10 to 50 nM in assay [2] (Proliferation assay, MiaPaca-2, read-out: MiaPaca-2 IC50 (nM) Pancreatic); 150 to 500 nM in assay [2] (setting [3]).
